The structures appear in SMILES notation. Where two headings read alike, the source gives them in different places. Some results are limits rather than exact numbers.

Assay [1] relates to T. brucei. The experiment in a line: microbe, parasite or virus in culture. The note with it: Trypanosoma brucei, read-out: EC50 by direct counting of cell growth.
In assay [2] the test system is T. brucei.
Assay [3] deals with bloodstream forms of Trypanosoma brucei. The assay can be described thus: Resazurin cell viability assay, EC50 determinations against T. brucei. Type of assay: cell-based, T. b. brucei (strain 427).
Another assay has as its system MRC5 cells. The experiment in a line: Resazurin cell viability counter-screen, EC50 determinations against mammalian cells. It counts as cell-based, human. As to conditions: for EC50: read-out: EC50 vs. MRC5.
A further assay deals with human fibroblasts (MRC5). The experiment in a line: DMSO tolerance of the resazurin assay, human fibroblasts. It counts as cell-based. The protocol: (§1) DMSO was serially diluted across a 96-well plate in 200 μl of the appropriate medium. For T. brucei, 100 μl aliquots were then transferred to a plate containing 100 μl cells at 2 × 10^3 ml^−1. Human fibroblasts were plated at 2 × 10^4 ml^−1 in 100 μl of medium and incubated overnight to allow cells to adhere before the addition of medium containing DMSO (100 μl) over a range of concentrations. Parasites and mammalian cells were then incubated for 3 days, after which 20 μl 500-μM resazurin was added to each well. Plates were incubated for a further 4 h before measuring fluorescence as above.
On the technique in general: Alamar Blue is a resazurin reagent that responds to reducing activity.

In assay [4] the test system is T. brucei. The assay can be described thus: DMSO tolerance of the resazurin assay, T. brucei. Type of assay: cell-based. The protocol: as §1
[5] abbreviates: Trypanosoma brucei, 72 h, read-out: EC50 of standard drugs against T. brucei.
Setting [6] is: read-out: EC50 of standard drugs against T. brucei.
The mark [7] stands for this setting: Trypanosoma brucei, 72 h, read-out: EC50 vs. T. brucei.
Where [8] appears, read: Trypanosoma brucei, 72 h, LOPAC hits (library screening), 3 days incubation, mean of 3 determinations weighted to standard error, read-out: EC50 vs. T. brucei.
Where [9] appears, read: Homo sapiens, MRC5, 72 h, 3 days incubation, mean of 4 determinations weighted to standard error.

A word on the EC50: it is the concentration giving half of the maximal effect. `NCCCC(N)(C(=O)O)C(F)F` (stereo not shown) [eflornithine, difluoromethylornithine]: the 50% effective concentration (EC50) came out at 17.1 ± 0.1 µM in the assay with T. brucei [1], 22400 ± 1100 nM in assay [3] (setting [5]) and 22000 nM in assay [3] (setting [6]). Further, the “Time after which cell growth was arrested” value in the assay with T. brucei [2] (10 × EC50) amounted to 30 h. The “Effect on T. brucei culture growth” value in the assay with T. brucei [2] (10 × EC50, 3 days) was “cytostatic effect”. The “EC99 (calculated from EC50 and Hill slope)” value in assay [3] was 77 µM.

In the case of `N=C(N)c1ccc(OCCCCCOc2ccc(C(=N)N)cc2)cc1` [Pentamidine isethionate], in the assay with T. brucei [2], the “Effect on T. brucei culture growth” value is on record as “cytocidal effect” and the “Time for cell density to drop below the limit of detection (1 × 10^3 cells ml−1)” value is on record as at most 40 h. The “EC99 (calculated/predicted from EC50 and Hill slope)” value in assay [3] is 37 nM. Further, in assay [3] (setting [5]), the EC50 came to 8.1 ± 0.54 nM. In assay [3] (setting [6]), the EC50 amounted to 8 nM. The compound also had a Selectivity in the assay on MRC5 cells of 3400.

Consider `Cc1cc(N)c2ccccc2[n+]1CCCCCCCCCC[n+]1c(C)cc(N)c2ccccc21` [Dequalinium dichloride], for which the EC50 in assay [3] (setting [7]) worked out at 43 ± 8.8 nM; in the assay with MRC5 cells (Homo sapiens, MRC5, 72 h), 6100 ± 1500 nM. In the assay with MRC5 cells, this compound had a Selectivity of 140. In addition, the “Selectivity / specificity for T. brucei over human fibroblasts” value in the assay on MRC5 cells is “greater than 100 fold”.

Turning to `Cc1c2ccncc2c(C)c2c1[nH]c1ccccc12` [Ellipticine], the EC50 in assay [3] (setting [8]) was 460 ± 45 nM; in the assay on MRC5 cells (setting [9]), 1700 ± 620 nM. Further, the Selectivity in the assay with MRC5 cells came to 3.7.

Consider `C[S+](C)[O-]` [DMSO], for which the entries for the “IC50 of DMSO” value with human fibroblasts (MRC5) (3 days incubation) and with T. brucei [4] (3 days incubation) were 1.04 ± 0.08 % (v/v) and 0.80 ± 0.06 % (v/v), respectively. Further, the Attenuation of fluorescence with human fibroblasts (MRC5) (DMSO 0.5%) amounted to 15%; in the assay on T. brucei [4] (DMSO 0.5%), 20%.

For the compound `O=c1[nH]c2ccccc2n1C1CCN(CCCC(c2ccc(F)cc2)c2ccc(F)cc2)CC1` [Pimozide], the EC50 in assay [3] (setting [7]) was found to be 340 ± 19 nM. The same compound showed a Selectivity in the assay with MRC5 cells of 41.

In the case of `COc1ccc2c(c[n+](C)c3c4cc5c(cc4ccc23)OCO5)c1OC` [Chelerythrine chloride], the EC50 in assay [3] (setting [8]) amounted to 59 ± 5.7 nM; in the assay with MRC5 cells (setting [9]), 2500 ± 480 nM. Besides, in the assay on MRC5 cells, the Selectivity amounted to 42.

In the case of `CC[C@]1(O)C[C@@H]2CN(CCc3c([nH]c4ccccc34)[C@@](C(=O)OC)(c3cc4c(cc3OC)N(C)[C@H]3[C@@](O)(C(=O)OC)[C@H](OC(C)=O)[C@]5(CC)C=CCN6CC[C@]43[C@@H]65)C2)C1.O=S(=O)(O)O` [Vinblastine sulfate salt], the 50% effective concentration (EC50) in assay [3] (read-out: EC50 vs. T. brucei) is 94 ± 6 nM. For the same compound, in the assay on MRC5 cells, the Selectivity is recorded as 8.3 and the concentration for a half-maximal effect (EC50) was 780 ± 910 nM.

For `CNc1ccc2oc(C[C@H]3O[C@@]4(CC[C@H]3C)O[C@H]([C@H](C)C(=O)c3ccc[nH]3)[C@H](C)C[C@H]4C)nc2c1C(=O)O` [Calcimycin], the EC50 in assay [3] (setting [7]) turned out to be 180 ± 13 nM; in the assay on MRC5 cells (Homo sapiens, MRC5, 72 h), 750 ± 140 nM. This compound gave a Selectivity in the assay with MRC5 cells of 4.2.

Take `Cc1ccc(C(=O)Nc2ccc(S(=O)(=O)O)c3cc(S(=O)(=O)O)cc(S(=O)(=O)O)c23)cc1NC(=O)c1cccc(NC(=O)Nc2cccc(C(=O)Nc3cc(C(=O)Nc4ccc(S(=O)(=O)O)c5cc(S(=O)(=O)O)cc(S(=O)(=O)O)c45)ccc3C)c2)c1` [Suramin hexasodium]: the half-maximal effective concentration (EC50) in assay [3] (setting [5]) is 20.1 ± 1.1 nM; in assay [3] (setting [7]), below 70 nM; in assay [3] (read-out: EC50 vs. T. brucei) it was 68 ± 3.5 nM; in the assay with MRC5 cells (Homo sapiens, MRC5, 72 h), above 50000 nM. In the assay on MRC5 cells, this compound gave a Selectivity above 710. Further, in the assay with MRC5 cells, the “Selectivity / specificity for T. brucei over human fibroblasts” value is above 700 fold.

These data come from publication PMC3025325, “Identification of a κ-opioid agonist as a potent and selective lead for drug development against human African trypanosomiasis” (Biochemical Pharmacology, 2010).
